Patent US8071645B2, “Systems and methods for treating human inflammatory and proliferative diseases and wounds, with fatty acid metabolism inhibitors and/or glycolytic inhibitors” (The Regents of the University of Colorado, priority 2003, dated 2011)

What was measured:
[1] = tested on: cell-surface Fas on drug sensitive L1210 cells; assay: cell-surface Fas expression on L1210 cells by flow cytometry; assay type: cell-based
Protocol: Flow Cytometry. Cells were harvested, counted, and resuspended at 10^6 cells/100 μl of PBS containing 2.5% fetal calf serum in preparation for flow cytometric analysis. Cells were stained for intracellular H202 using 6-carboxy-2′,7′-dichlorodihydrofluorescein diacetate (DCF-DA, Molecular Probes, Eugene, Oreg.). Briefly, cells were incubated at 37° with 1 mM DCF-DA for 20 minutes, washed twice in PBS containing 2.5% fetal calf serum and analyzed flow cytometrically. Mitochondrial membrane potential was assessed using Mitotracker Red (CM-H2XROS, Molecular Probes, Eugene, Oreg.). […] The cells were incubated at 37° for 20 minutes, washed twice in PBS containing 2.5% fetal calf serum and analyzed flow cytometrically. Data were acquired on a Coulter Elite Epics or Excel flow cytometer (Coulter, Hialeah, Fla.) and analyzed with CellQuest software, (Becton Dickinson, San Jose, Calif.). […] Each sample population was classified for cell size (forward scatter) and complexity (side scatter), gated on a population of interest and evaluated using 5,000 cells. […]
Drug sensitive L1210 cells and drug resistant L1210/DDP cells were cultured with etomoxir for 24 hours (Tx indicates treatment with etomoxir). The level of cell-surface Fas was determined using fluorochrome conjugated anti-Fas antibodies and flow cytometry. The Fas levels are measured relative to a control for staining artifacts. […]

[2] = tested on: B16F1 melanoma cells; assay: mitochondrial membrane potential (Mitotracker Red) of B16F1 melanoma cells; assay type: cell-based; conditions: 48 hours, FIG. 20
Protocol: Metabolic Activity Assay. Cells were prepared as previously described. The specific metabolic dye was added and mixed into the cell suspension. This plate was then placed into the 37° incubator for a 20-minute incubation. After incubation, the cells were centrifuged at 300×g for 5 minutes, and the supernatant was removed. The cells were then washed once with PBS/2.5% FBS and transferred into flow cytometric tubes containing 500 μL of PBS/2.5% FBS for analysis
MitoTracker Red CM-H2XROS (Molecular Probes). One vial of MitoTracker Red provides 10 tests and contains 50 μg. This is unstable and can't be stored. Therefore, when each vial was opened, 43 μL of Dimethysulfoxide (DMSO) were added. […]
Geometric Mean Fluorescence. […] Once the stained sample was plotted against the control (isotype or unstained), geometric mean fluorescence values were obtained for both histogram peaks. The stained control sample value was subtracted from sample to identify the actual fluorescence of the stained sample over that of the control.
B16F1 melanoma cells of Example 12 were untreated or treated with etomoxir at the indicated concentrations for 48 hours. Cells were harvested, stained with Mitotracker Red (Molecular Probes) as described in Materials and Methods, and analyzed by flow cytometry. The value of Mitotracker Red was then calculated as described in Materials and Methods. […]

`CCOC(=O)C1(CCCCCCOc2ccc(Cl)cc2)CO1` (stereo not drawn) [etomoxir, 2-(6-(4-chlorophenoxy)-hexyl)-oxirane-2-carboxylic acid ethyl ester] was tested, and the “cell surface Fas” value ([1]; cultured with etomoxir for 24 hours, FIG. 7) was “significant increases”, the “methotrexate-induced increases in Fas” value ([1]; etomoxir with methotrexate, FIG. 8) was “increases” and the “mitochondrial membrane potential as measured by Mitotracker Red” value [2] was “increase”.
